{"source": "patent US20230143119A1", "about": "“PHARMACEUTICAL COMPOSITION FOR PREVENTION OR TREATMENT OF DIABETES AND METABOLIC DISEASES ASSOCIATED THEREWITH” (DONG-A ST CO., LTD., priority 2020, published 2023)", "key": {"DIO mice": {"tested_on": "DIO mice", "experiment": "12-week drug-diet admixture in diet-induced obese (DIO) and insulin resistant mice", "assay_type": "in vivo, C57BL/6J mice", "settings": "compound 1 100 mg/kg/day, elafibranor 30 mg/kg/day, alone or in combination, 12 weeks", "experimental": "To induce insulin resistance, six-weeks old male C57BL/6J mice were supplied with a special diet of high fat, high fructose and high cholesterol (Research Diets Inc., D09100301) for at least 27 weeks. A drug-diet admixture was prepared so that diet-induced obese (DIO) and insulin resistant mice could be administered with each of compound 1 at 100 mg/kg/day and elafibranor at 30 mg/kg/day as a PPAR agonist alone or in combination. The prepared drug-diet admixture was supplied to mice for 12 weeks. Nonfasting blood glucose level was measured from plasma collected after autopsy at a time point of 12 weeks after drug administration using a Roche's AccuChek Active glucose meter."}, "HF mice": {"tested_on": "HF mice", "experiment": "Three-week administration in high fat diet (HF) insulin resistant mice", "assay_type": "in vivo, C57BL/6J male mice", "settings": "for effect of reducing body fat: compound 1 50 mg/kg or metformin 150 mg/kg twice a day alone, body composition analysis by NMR; for blood concentration of total GLP-1 (GLP-1 secretion) / weight loss: compound 1 50 mg/kg, metformin 150 mg/kg, twice a day, alone or co-administered; for blood concentration of total GLP-1 (GLP-1 secretion): three weeks, nonfasting autopsy; for weight loss: two weeks", "experimental": "Four-weeks old C57BL/6J male mice were supplied with a high fat diet (Research Diets Inc., D12492; 60% kcal fat) for ten weeks so as to induce insulin resistance. After acclimatization to drug administration for two weeks, the mice were assigned into each group based on body weight and body fat. Compound 1 was administered alone at 50 mg/kg twice a day to a compound 1 monotherapy group, and metformin was administered alone at 150 mg/kg twice a day to a metformin monotherapy group. The co-administration group was orally co-administered with compound 1 at 50 mg/kg and metformin at 150 mg/kg twice a day for three weeks. […] Fasting blood glucose was measured from whole blood collected from a tail vein after fasting for six hours at the second week of administration using a Roche's AccuChek Active glucose meter."}, "normal mice": {"tested_on": "normal mice", "experiment": "Single dose administration in normal mice with oral sucrose loading", "assay_type": "in vivo, ICR male mice", "settings": "oral compound 1 3 mg/kg, voglibose 0.02 mg/kg, alone or in combination; sucrose 2 g/kg 30 min later", "experimental": "At a time point of 30 minutes later, sucrose solution was orally loaded at 2 g/kg/10 ml. […] A time-blood glucose level response curve was obtained. In terms of a rate of change, a comparison was made between an area under the time-blood glucose level curve in a control group administered with solvent only and an area under the time-blood glucose level curve in a drug administration group."}}}
{"smiles": "CCc1cnc(N2CCC(CCCOc3cc(F)c(-c4noc(C(C)C)n4)c(F)c3)CC2)nc1", "note": "[compound 1, 3-(4-(3-(1-(5-ethylpyrimidin-2-yl)piperidin-4-yl)propoxy)-2,6-difluorophenyl)-5-isopropyl-1,2,4-oxadiazole]", "values": [{"measurement": "hypoglycemic effect (nonfasting blood glucose level)", "setting": "DIO mice", "value": "did not exhibit a significant hypoglycemic effect"}, {"measurement": "effect of reducing body fat", "setting": "HF mice", "value": "no effect of reducing body fat"}, {"measurement": "blood concentration of total GLP-1 (GLP-1 secretion)", "setting": "HF mice", "value": "significant increase in GLP-1 secretion was not identified"}, {"measurement": "weight loss", "setting": "HF mice", "value": "−4.0", "unit": "%"}]}
{"smiles": "CSc1ccc(C(=O)/C=C/c2cc(C)c(OC(C)(C)C(=O)O)c(C)c2)cc1", "note": "[elafibranor]", "values": [{"measurement": "hypoglycemic effect (nonfasting blood glucose level)", "setting": "DIO mice", "value": "exhibited a hypoglycemic effect"}]}
{"smiles": "CN(C)C(=N)N=C(N)N", "note": "[metformin]", "values": [{"measurement": "effect of reducing body fat", "setting": "HF mice", "value": "insignificant effect of reducing body fat"}, {"measurement": "blood concentration of total GLP-1 (GLP-1 secretion)", "setting": "HF mice", "value": "significant increase in GLP-1 secretion was not identified"}, {"measurement": "weight loss", "setting": "HF mice", "value": "−4.4", "unit": "%"}]}
{"smiles": "OCC(CO)N[C@H]1C[C@](O)(CO)[C@@H](O)[C@H](O)[C@H]1O", "note": "[voglibose]", "values": [{"measurement": "hypoglycemic effect (postprandial blood glucose for two hours after sucrose loading)", "setting": "normal mice", "value": "no hypoglycemic effect"}]}
